Data from patent US20240140970A1, “A […], AND PREPARATION METHOD AND USE THEREOF” (ASCENTAWITS PHARMACEUTICALS, LTD., priority 2021, published 2024).
“And” between values parts separate entries of the source, which are not always exact repeats. Identical values can stand only once.

Assay: Freeze/thaw stability of AST-2660 in human urine (LC-MS/MS)
Type: in vitro ADME
Experimental: The detection method established in example 6 was used to detect the content of AST-2660 in the human urine to be tested.
Matrix: the mixed normal human urine containing an additive Na2HPO4·12H2O. • a: the internal standard working solution: AST-2660-D8 was taken, dissolved with methanol, and diluted to prepare a solution containing about 100 ng per 1 ml. • b: the solution to be tested (no internal standard compound was added to the solution to be tested at this time): it was obtained by taking a blood sample to be tested. • c: the standard working solution (no internal standard compound was added to the standard working solution at this time): an appropriate amount of AST-2660 was taken and accurately weighed, dissolved with methanol and diluted to prepare a solution containing about 1.0 mg per 1 ml, which was used as the standard working stock solution. An appropriate amount of the standard working stock solution was taken, added with the matrix and diluted to prepare standard working solutions with different concentrations containing about 200 ng, 160 ng, 100 ng, 50 ng, 10 ng, 2.0 ng, 1.0 ng and 0.5 ng per 1 ml, respectively. (The solution was stored at −70° C.) • d: the quality control sample solution: an appropriate amount of AST-2660 was taken and accurately weighed, dissolved with methanol, and diluted to prepare a solution containing about 10 μg per 1 ml, which was used as the quality control working stock solution. An appropriate amount of the quality control working stock solution was taken, and added with the matrix to prepare quality control working solutions with different concentrations containing about 150 ng, 60 ng, 15 ng, 1.5 ng and 0.5 ng per 1 ml. (The solution was stored at −70° C.)
The solution to be tested, the standard working solution and the quality control sample solution were thawed at room temperature and mixed uniformly. 100 μl of the above solution was respectively taken, added with 20 μl of the internal standard and 500 μl of methanol, and vortexed for 3 minutes to mix uniformly, and then centrifuged for 30 minutes at 2143 rcf. 450 μl of supernatant was taken, and then centrifuged for 10 minutes in a 96-well plate at 2143 rcf. It was obtained by taking 300 μl of supernatant.
Liquid phase conditions: A SHARC 1, 3 μm, 2.1*50 mm or chromatograph column with equivalent performance was used; methanol solution containing low content of ammonium acetate was used; mobile phase B was acetonitrile; the gradient elution was performed according to the following table; column temperature: 20° C.; injection volume: 5 μl.
Mass spectrometric conditions: electrospray ion source with negative ion scanning mode; spray potential: −4500 V; ion source temperature: 500° C.; collision energy (CE): −22 eV; declustering potential (DP): −55V; entrance potential (EP): −10V; collision chamber exit potential (CXP): −16V; dwell time: 100 ms; high purity nitrogen was used for all gases; AST-2660 ions pairs: m/z 147.0→m/z 62.9; the internal standard AST-2660-D8 ion pairs: m/z 155.0→m/z 62.9.
The AST-2660 standard working solution, blank sample, zero concentration sample, solution to be tested and quality control working solution with different concentrations after extraction were respectively taken and injected into LC-MS/MS for detection.
Calculation results: the relationship function y=f (x) of the ratio of the peak area of AST-2660 to that of the internal standard was obtained from AST-2660 standard working solutions with different concentrations. The ratio of the peak area of AST-2660 to that of the internal standard was determined from the solution to be tested after extraction, and substituted into the relationship function y=f (x) to calculate the concentration of the metabolite II in the solution to be tested.

[1] = human urine, DilQC (10-fold dilution) nominal 1500 ng/ml, 3 freeze/thaw cycles at −70° C.
[2] = human urine, DilQC (10-fold dilution) nominal 1500 ng/ml, 5 freeze/thaw cycles at −70° C.
[3] = human urine, QC1 nominal 1.50 ng/ml, 3 freeze/thaw cycles at −70° C.
[4] = human urine, QC1 nominal 1.50 ng/ml, 5 freeze/thaw cycles at −70° C.
[5] = human urine, QC4 nominal 150 ng/ml, 3 freeze/thaw cycles at −70° C.
[6] = human urine, QC4 nominal 150 ng/ml, 5 freeze/thaw cycles at −20° C.
[7] = human urine, QC4 nominal 150 ng/ml, 5 freeze/thaw cycles at −70° C.

With `O=P([O-])(N1CC1)N1CC1.[Na+]` [AST-2660] the “RE (accuracy), range over three concentration levels” value (freezing/thawing at −70° C. for up to 3 cycles, 1.5, 150 and 1500 ng/ml) was “RE: −11.8% to 12.5%”, the “AST-2660 concentration, Mean value” [1] was 1540 ng/mL and the “AST-2660 concentration, single replicates” value [1] was 1650 ng/ml and 1500 ng/ml (2×) and 1510 ng/ml. For the same molecule, the “RE (%) vs nominal” value [1] was 2.7%, the “AST-2660 concentration, single replicates” value (human urine, DilQC (10-fold dilution) nominal 1500 ng/ml, 5 freeze/thaw cycles at −20° C.) was “<LLOQ (5.00) ng/ml” and the “AST-2660 concentration, Mean value” [2] was 1508 ng/mL. The “AST-2660 concentration, single replicates” value [2] was 1490 ng/ml and 1500 ng/ml (2×) and 1540 ng/ml, the “RE (%) vs nominal” value [2] was 0.5% and the “AST-2660 concentration, Mean value” [3] was 1.60 ng/mL. The “AST-2660 concentration, single replicates” value [3] was 1.69 ng/mL and 1.72 ng/mL and 1.47 ng/mL and 1.51 ng/mL, the “RE (%) vs nominal” value [3] was 6.5% and the “AST-2660 concentration, single replicates” value (human urine, QC1 nominal 1.50 ng/ml, 5 freeze/thaw cycles at −20° C.) was “<LLOQ (0.500) ng/ml”. The “AST-2660 concentration, Mean value” [4] was 1.73 ng/mL, the “AST-2660 concentration, single replicates” value [4] was 2.14 ng/mL and 1.58 ng/mL and 1.68 ng/mL and 1.52 ng/mL and the “RE (%) vs nominal” value [4] was 15.3%. For the same molecule, the “AST-2660 concentration, Mean value” [5] was 149 ng/mL, the “AST-2660 concentration, single replicates” value [5] was 145 ng/ml and 148 ng/ml (2×) and 154 ng/ml and the “RE (%) vs nominal” value [5] was −0.8%. The “AST-2660 concentration, Mean value” [6] was 13 ng/mL, the “AST-2660 concentration, single replicates” value [6] was 12.2 ng/mL and 13.0 ng/mL and 12.3 ng/mL and 12.5 ng/mL and the “RE (%) vs nominal” value [6] was −91.7%. For the same molecule, the “AST-2660 concentration, Mean value” [7] was 173 ng/mL, the “AST-2660 concentration, single replicates” value [7] was 172 ng/ml (2×) and 169 ng/ml and 178 ng/ml and the “RE (%) vs nominal” value [7] was 15.2%. For the same molecule, the “reduction of AST-2660 content” value (human urine, freeze-thaw process from −20° C. to room temperature) was about 90% and the “change of AST-2660 content (in words)” value (human urine, freeze-thaw process from −70° C. to room temperature) was “almost no reduction”.
